The values below come from the NIST ThermoML archive (doi:10.1016/j.tca.2019.178308).

Molecules are shown by their SMILES. Numbers after ± are expanded uncertainties.

Series [1] in a line: wn = mass fraction of the nth substance listed. To be noted: 304.15 K, 100 kPa, Liquid, transient hot wire.
For series [2] the following is noted: 304.15 K; 100 kPa; Liquid; transient hot wire.

In the case of `CCCCCCCCCCCCOS(=O)(=O)[O-].[Na+]` [sodium dodecyl sulfate] + O, the thermal conductivity came to 0.589 ± 0.024 W/m/K in series [1] (w1 = 0.001), 0.538 ± 0.022 W/m/K in series [1] (w1 = 0.003), 0.537 ± 0.022 W/m/K in series [1] (w1 = 0.005) and 0.499 ± 0.02 W/m/K in series [1] (w1 = 0.007).

Regarding `O` [water] + CCCCCCCCCCCCOS(=O)(=O)[O-].[Na+], the thermal conductivity in series [1] (w2 = 0) worked out at 0.613 ± 0.025 W/m/K.

Regarding `O` [water], in series [2], the thermal conductivity came to 0.613 ± 0.025 W/m/K.
